Values joined by “and” are separate entries in the source; they are usually repeats but may differ in a detail not shown here. Equal entries are not always repeated. Inconclusive results and toxic doses are left out. No stated cut-off is given here; in the data, active means T/C of 150% or more; inactive means T/C below 125%.
Test system: L1210 leukemia ip in BDF1 mice, survival T/C
Assay: NCI In Vivo Anticancer Drug Screen. Data for tumor model L1210 Leukemia (intraperitoneal) in B6D2F1 (BDF1) mice
Details: endpoint: mean survival time, higher = longer survival
Outline: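 In this screen, tumor-bearing mice given compound are compared to those given vehicle, and their survival values are reported as a treated-to-control quotient.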

[1] = dose: 100.0 mg/kg/injection, schedule: Q01DX001 (ip), vehicle: saline
[2] = dose: 200.0 mg/kg/injection, schedule: Q01DX001 (ip), vehicle: saline
[3] = dose: 50.0 mg/kg/injection, schedule: Q01DX009 (ip), vehicle: saline with Tween-80
[4] = dose: 100.0 mg/kg/injection, schedule: Q01DX009 (ip), vehicle: saline with Tween-80
[5] = dose: 100.0 mg/kg/injection, schedule: Q04DX003 (ip), vehicle: saline with Tween-80
[6] = dose: 100.0 mg/kg/injection, schedule: Q01DX001 (ip), vehicle: Klucel (hydroxypropylcellulose) (HPC)
[7] = dose: 200.0 mg/kg/injection, schedule: Q01DX001 (ip), vehicle: Klucel (hydroxypropylcellulose) (HPC)
[8] = dose: 400.0 mg/kg/injection, schedule: Q01DX001 (ip), vehicle: Klucel (hydroxypropylcellulose) (HPC)
[9] = dose: 100.0 mg/kg/injection, schedule: Q01DX009 (ip), vehicle: saline
[10] = dose: 100.0 mg/kg/injection, schedule: Q04DX003 (ip), vehicle: saline
[11] = dose: 200.0 mg/kg/injection, schedule: Q01DX009 (ip), vehicle: saline
[12] = dose: 200.0 mg/kg/injection, schedule: Q04DX003 (ip), vehicle: saline
[13] = dose: 100.0 mg/kg/injection, schedule: Q01DX009 (ip), vehicle: Klucel (hydroxypropylcellulose) (HPC)
[14] = dose: 100.0 mg/kg/injection, schedule: Q04DX003 (ip), vehicle: Klucel (hydroxypropylcellulose) (HPC)
[15] = dose: 200.0 mg/kg/injection, schedule: Q01DX009 (ip), vehicle: Klucel (hydroxypropylcellulose) (HPC)
[16] = dose: 200.0 mg/kg/injection, schedule: Q04DX003 (ip), vehicle: Klucel (hydroxypropylcellulose) (HPC)
[17] = dose: 400.0 mg/kg/injection, schedule: Q01DX009 (ip), vehicle: Klucel (hydroxypropylcellulose) (HPC)
[18] = dose: 400.0 mg/kg/injection, schedule: Q04DX003 (ip), vehicle: Klucel (hydroxypropylcellulose) (HPC)
[19] = dose: 200.0 mg/kg/injection, schedule: Q01DX009 (ip), vehicle: saline with Tween-80
[20] = dose: 400.0 mg/kg/injection, schedule: Q01DX009 (ip), vehicle: saline with Tween-80
[21] = dose: 400.0 mg/kg/injection, schedule: Q01DX001 (ip), vehicle: saline

Measured: T/C

Cc1cc(=O)[nH]c(N2CCOCC2)n1
inactive: [1] 106 % of control | [2] 101 % of control

N#CCCP(CCC#N)CCCCCP(CCC#N)CCC#N
inactive: dose: 100.0 mg/kg/injection, schedule: Q01DX001 (ip), vehicle: saline with Tween-80 100 % of control | dose: 200.0 mg/kg/injection, schedule: Q01DX001 (ip), vehicle: saline with Tween-80 92 % of control | dose: 400.0 mg/kg/injection, schedule: Q01DX001 (ip), vehicle: saline with Tween-80 86 % of control

NC1CCc2ccccc2C(O)C1c1ccccc1 (configuration not stated)
inactive: dose: 25.0 mg/kg/injection, schedule: Q01DX009 (ip), vehicle: saline with Tween-80 97 % of control | dose: 25.0 mg/kg/injection, schedule: Q04DX003 (ip), vehicle: saline with Tween-80 107 % of control | [3] 105 % of control | dose: 50.0 mg/kg/injection, schedule: Q04DX003 (ip), vehicle: saline with Tween-80 104 % of control | [4] 100 % of control | [5] 102 % of control

Cc1ccc(Nc2cc(=O)[nH]c(N)n2)cc1C
inactive: dose: 100.0 mg/kg/injection, schedule: Q01DX Z (ip), vehicle: methylcellulose (MC) 95 % of control | dose: 200.0 mg/kg/injection, schedule: Q01DX Z (ip), vehicle: methylcellulose (MC) 95 % of control

CCCC(=O)Nc1cc([N+](=O)[O-])ccc1O
inactive: [3] 97 % of control and 106 % of control | dose: 100.0 mg/kg/injection, schedule: Q04DX002 (ip), vehicle: saline with Tween-80 93 % of control and 95 % of control | dose: 200.0 mg/kg/injection, schedule: Q04DX002 (ip), vehicle: saline with Tween-80 95 % of control and 97 % of control | dose: 400.0 mg/kg/injection, schedule: Q04DX002 (ip), vehicle: saline with Tween-80 95 % of control and 92 % of control

O=C1c2ccccc2C(=O)N1c1ccc([N+](=O)[O-])cc1
inactive: [6] 103 % of control | [7] 97 % of control | [8] 103 % of control

CCOCCN1C=C/C(=C/C=C/c2cc[n+](CCOCC)c3ccccc23)c2ccccc21
inactive: dose: 0.31 mg/kg/injection, schedule: Q04DX003 (ip), vehicle: saline 98 % of control | dose: 0.45 mg/kg/injection, schedule: Q01DX009 (ip), vehicle: saline 104 % of control | dose: 0.62 mg/kg/injection, schedule: Q04DX003 (ip), vehicle: saline 121 % of control | dose: 0.9 mg/kg/injection, schedule: Q01DX009 (ip), vehicle: saline 118 % of control | dose: 1.25 mg/kg/injection, schedule: Q01DX001 (ip), vehicle: saline 96 % of control | dose: 1.25 mg/kg/injection, schedule: Q04DX003 (ip), vehicle: saline 111 % of control | dose: 1.8 mg/kg/injection, schedule: Q04DX003 (ip), vehicle: saline 98 % of control

Cc1nc(N)nc(N)c1CCCOc1ccc(N)cc1
inactive: [6] 103 % of control | [7] 97 % of control | [8] 100 % of control

NCC(=O)NC(CO)C(=O)O (configuration not stated)
inactive: [9] 106 % of control | [10] 110 % of control | [11] 101 % of control | [12] 103 % of control | dose: 400.0 mg/kg/injection, schedule: Q01DX009 (ip), vehicle: saline 95 % of control | dose: 400.0 mg/kg/injection, schedule: Q04DX003 (ip), vehicle: saline 100 % of control

CC12C=CC3(CCC4C(C)(C)C(=O)C(O)=CC4(C)C3CC1=O)C2 (configuration not stated)
inactive: [13] 103 % of control | [14] 95 % of control | [15] 94 % of control | [16] 98 % of control | [17] 94 % of control | [18] 98 % of control

Cn1cnc2c1c(=O)[nH]c(=O)n2C
inactive: [13] 93 % of control | [9] 95 % of control | [15] 86 % of control | [11] 92 % of control | [17] 89 % of control

CCNC1(c2ccc(Cl)cc2)CCCCC1=O (configuration not stated)
inactive: dose: 50.0 mg/kg/injection, schedule: Q01DX009 (ip), vehicle: saline 105 % of control | [9] 102 % of control | [10] 104 % of control | [12] 106 % of control

CC(C)CCCCc1c[nH]c(=O)[nH]c1=O
inactive: [4] 107 % of control | [5] 94 % of control | [19] 104 % of control | dose: 200.0 mg/kg/injection, schedule: Q04DX003 (ip), vehicle: saline with Tween-80 97 % of control | [20] 101 % of control | dose: 400.0 mg/kg/injection, schedule: Q04DX003 (ip), vehicle: saline with Tween-80 92 % of control

CC(C)(C)NC(=O)CCC1C(NC(=O)C(C)(C)C)C2(Cl)C(Cl)=C(Cl)C1(Cl)C2(Cl)Cl (configuration not stated)
inactive: [13] 90 % of control | [14] 92 % of control | [15] 90 % of control | [16] 92 % of control | [17] 90 % of control | [18] 93 % of control

CC(CCCCC1NC(=O)NC1C)C(=O)O (configuration not stated)
inactive: [1] 95 % of control | [2] 90 % of control | [21] 90 % of control

CC(C)(C)N1C(C(=O)c2ccccc2)C1C(=O)c1ccccc1 (configuration not stated)
inactive: [6] 97 % of control | [7] 95 % of control | [8] 89 % of control

O=C(O)/C(=C\C#Cc1ccccc1)c1ccccc1
inactive: [14] 94 % of control | [16] 100 % of control

CCc1ncc(C(C)(O)c2ccc(Cl)cc2)n1Cc1ccccc1 (configuration not stated)
inactive: [14] 94 % of control | [16] 92 % of control | [18] 89 % of control

CCCC(CCC#N)C(=O)c1ccccc1 (configuration not stated)
inactive: [6] 91 % of control | [7] 98 % of control | [8] 95 % of control

Cc1ccc(Sc2cccc3c(C)c4cccc5c4c(c23)C[S+]5c2ccc(C)cc2)cc1 (configuration not stated)
inactive: dose: 1.56 mg/kg/injection, schedule: Q01DX009 (ip), vehicle: saline with Tween-80 103 % of control | dose: 3.13 mg/kg/injection, schedule: Q01DX009 (ip), vehicle: saline with Tween-80 101 % of control | dose: 6.25 mg/kg/injection, schedule: Q01DX009 (ip), vehicle: saline with Tween-80 103 % of control

OCCOc1nc(OCCO)c(Cl)c(C(Cl)(Cl)Cl)n1
inactive: [4] 98 % of control | [19] 93 % of control | [20] 86 % of control

N#Cc1ccc(CC(=O)c2ccccc2)cc1
inactive: dose: 50.0 mg/kg/injection, schedule: Q01DX001 (ip), vehicle: saline 101 % of control | [1] 97 % of control | [2] 101 % of control | [21] 95 % of control

FC(F)(F)C(=Cc1nc2ccccc2s1)C(F)(F)F
inactive: dose: 12.5 mg/kg/injection, schedule: Q01DX009 (ip), vehicle: Klucel (hydroxypropylcellulose) (HPC) 91 % of control | dose: 12.5 mg/kg/injection, schedule: Q04DX003 (ip), vehicle: Klucel (hydroxypropylcellulose) (HPC) 93 % of control | dose: 25.0 mg/kg/injection, schedule: Q01DX009 (ip), vehicle: Klucel (hydroxypropylcellulose) (HPC) 98 % of control | dose: 25.0 mg/kg/injection, schedule: Q04DX003 (ip), vehicle: Klucel (hydroxypropylcellulose) (HPC) 97 % of control | dose: 50.0 mg/kg/injection, schedule: Q04DX003 (ip), vehicle: Klucel (hydroxypropylcellulose) (HPC) 95 % of control
